According to the NIST ThermoML archive (doi:10.1021/acs.jced.5b00251):
Numbers after ± are expanded uncertainties.

Experiment: refractive index (other wavelength) (dimensionless); xn = mol fraction of the nth substance listed
Conditions: 101 kPa, Liquid, Standard Abbe refractometry

c1ccc2c(c1)CCCC2 [1,2,3,4-tetrahydronaphthalene] + CCCCCCCCCCCC
refractive index
Conditions	x1 = 0.1014	x1 = 0.2024	x1 = 0.3032	x1 = 0.4036	x1 = 0.5038	x1 = 0.6036	x1 = 0.7032	x1 = 0.8024	x1 = 0.9014
308.15 K, Wavelength=436.1 nm	1.43455 ± 0.00073	1.44495 ± 0.00073	1.45589 ± 0.00075	1.46783 ± 0.00078	1.4805 ± 0.00075	1.49371 ± 0.00077	1.50749 ± 0.00076	1.52185 ± 0.00078	1.538 ± 0.00077
308.15 K, Wavelength=513.9 nm	1.42811 ± 0.00072	1.43794 ± 0.00074	1.44864 ± 0.00074	1.45985 ± 0.00073	1.47118 ± 0.00075	1.48392 ± 0.00074	1.49684 ± 0.00075	1.51075 ± 0.00076	1.52559 ± 0.00075
308.15 K, Wavelength=589.3 nm	1.4245 ± 0.00071	1.434 ± 0.00073	1.44408 ± 0.00074	1.45488 ± 0.00075	1.46618 ± 0.00074	1.47848 ± 0.00073	1.49085 ± 0.00073	1.50425 ± 0.00077	1.51872 ± 0.00074
308.15 K, Wavelength=633.2 nm	1.42297 ± 0.00072	1.43234 ± 0.00072	1.44222 ± 0.00073	1.45318 ± 0.00074	1.46436 ± 0.00075	1.4762 ± 0.00073	1.48855 ± 0.00073	1.50145 ± 0.00075	1.51565 ± 0.00074
308.15 K, Wavelength=657.2 nm	1.42224 ± 0.00072	1.4316 ± 0.00074	1.44127 ± 0.00075	1.45195 ± 0.00074	1.46385 ± 0.00073	1.47498 ± 0.00075	1.48694 ± 0.00075	1.50013 ± 0.00077	1.51517 ± 0.00073
313.15 K, Wavelength=436.1 nm	1.43218 ± 0.00073	1.44283 ± 0.00074	1.45339 ± 0.00077	1.46524 ± 0.00077	1.47822 ± 0.00075	1.49111 ± 0.00078	1.50491 ± 0.00077	1.51939 ± 0.00078	1.5354 ± 0.00077
313.15 K, Wavelength=513.9 nm	1.42576 ± 0.00072	1.43568 ± 0.00073	1.44614 ± 0.00073	1.45759 ± 0.00076	1.46885 ± 0.00075	1.48167 ± 0.00074	1.49443 ± 0.00076	1.50825 ± 0.00077	1.52307 ± 0.00075
313.15 K, Wavelength=589.3 nm	1.42227 ± 0.00072	1.43177 ± 0.00074	1.44157 ± 0.00073	1.45242 ± 0.00076	1.46372 ± 0.00074	1.47625 ± 0.00073	1.48857 ± 0.00074	1.50166 ± 0.00077	1.51623 ± 0.00074
313.15 K, Wavelength=633.2 nm	1.42066 ± 0.00072	1.43026 ± 0.00073	1.43979 ± 0.00072	1.45075 ± 0.00075	1.46185 ± 0.00073	1.47398 ± 0.00073	1.48614 ± 0.00074	1.49928 ± 0.00074	1.51325 ± 0.00072
313.15 K, Wavelength=657.2 nm	1.41998 ± 0.0007	1.42919 ± 0.00073	1.439 ± 0.00071	1.44965 ± 0.00074	1.46161 ± 0.00073	1.47245 ± 0.00075	1.48468 ± 0.00074	1.49759 ± 0.00076	1.51275 ± 0.00074
318.15 K, Wavelength=436.1 nm	1.43001 ± 0.00072	1.44026 ± 0.00075	1.45084 ± 0.00071	1.46269 ± 0.00072	1.47578 ± 0.00077	1.48857 ± 0.00073	1.50241 ± 0.00075	1.51672 ± 0.00071	1.5331 ± 0.00075
318.15 K, Wavelength=513.9 nm	1.42366 ± 0.00062	1.43333 ± 0.00065	1.44405 ± 0.00066	1.45487 ± 0.0007	1.46645 ± 0.00063	1.47929 ± 0.00067	1.49184 ± 0.00064	1.50571 ± 0.00065	1.52083 ± 0.00059
318.15 K, Wavelength=589.3 nm	1.42009 ± 0.00069	1.42933 ± 0.0007	1.43955 ± 0.00067	1.44985 ± 0.00069	1.46145 ± 0.00067	1.47389 ± 0.00072	1.48615 ± 0.0007	1.49906 ± 0.00068	1.51403 ± 0.00067
318.15 K, Wavelength=633.2 nm	1.41859 ± 0.00068	1.42777 ± 0.00073	1.43785 ± 0.00068	1.44826 ± 0.00073	1.45981 ± 0.00068	1.47165 ± 0.00073	1.48389 ± 0.00073	1.49667 ± 0.00073	1.51123 ± 0.00066
318.15 K, Wavelength=657.2 nm	1.41814 ± 0.00068	1.42702 ± 0.00067	1.43701 ± 0.00068	1.44718 ± 0.00067	1.45934 ± 0.00079	1.47014 ± 0.00068	1.48216 ± 0.00072	1.49507 ± 0.00066	1.51044 ± 0.00073
